Assay results taken from patent US20090029992A1, “SUBSTITUTED PYRAZOLE COMPOUNDS” (priority 2007, published 2009).

Assays:
Assay type in all cases: biochemical
[1] = biological target: T1, recombinant Aurora A (Homo sapiens, UniProt O14965); assay: Aurora A (Aurora 2) inhibition assay, Z'-Lyte kinase assay; conditions: ATP 10 μM, 1 h
T1 construct: purchased Upstate, Lake Placid, N.Y
T1 sequence (O14965 1-403): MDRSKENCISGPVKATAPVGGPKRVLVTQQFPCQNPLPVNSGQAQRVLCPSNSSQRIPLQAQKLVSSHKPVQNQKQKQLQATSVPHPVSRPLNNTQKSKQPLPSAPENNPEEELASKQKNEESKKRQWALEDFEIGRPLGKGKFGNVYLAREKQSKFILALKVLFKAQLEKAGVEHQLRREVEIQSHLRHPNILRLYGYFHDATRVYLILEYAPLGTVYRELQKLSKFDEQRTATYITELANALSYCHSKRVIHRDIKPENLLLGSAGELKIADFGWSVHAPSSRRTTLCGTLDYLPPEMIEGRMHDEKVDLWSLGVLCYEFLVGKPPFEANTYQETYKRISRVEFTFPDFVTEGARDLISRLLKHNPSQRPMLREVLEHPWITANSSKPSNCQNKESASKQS
Method: Compounds were tested for their potency against recombinant Aurora A (Upstate, Lake Placid, N.Y.) using the PanVera Z′-Lyte kinase assay kit—Ser/Thr 1 peptide (Invitrogen, Carlsbad, Calif.). Assays were carried out in kinase assay buffer (50 mM HEPES, pH 7.5, 10 mM MgCl2, 5 mM EGTA, 0.05% Brij-35, 2 mM DTT). Test compounds were initially dissolved in DMSO at 100× the highest tested concentration, then serially diluted to 4× test concentrations in kinase assay buffer. Next, Aurora A (final concentration 200-500 ng/mL), Z′-Lyte Ser/Thr 1 peptide (final concentration 2 μM) and ATP (final concentration 10 μM) were added according to the manufacturer's instructions. Assays were carried out in half-area 96-well white polystyrene assay plates (Corning, Corning, N.Y.) in a final volume of 20 μl. The reaction was allowed to proceed for 1 h at room temperature in the dark, at which point the development reagent and stop reagent were added according to the manufacturer's instructions. Coumarin (Ex. 400 nm, Em. 465 nm) and fluorescein (Ex. 400 nm, Em. 565 nm) fluorescence values were measured on a SpectraFluor Plus plate reader (Tecan, Durham, N.C.). The emission ratio (coumarin/fluorescein) was determined and used to calculate the percent phosphorylation for each well. Wells containing substrate but no kinase and wells containing a phosphopeptide control were used to set 0% and 100% phosphorylation values, respectively. Typically 20-40% of the substrate was phosphorylated in wells without inhibitor. Dose-response curves of relative Aurora A activity vs. inhibitor concentration were plotted with Grafit (Erithacus Software, Horley, Surrey, UK).

[2] = biological target: T2, N-terminal GST-tagged recombinant human Flt3, residues 564-end (Homo sapiens, UniProt P36888); assay: Flt3 kinase inhibition assay (33P-ATP filter assay); conditions: 40 minutes at room temperature
T2 construct: recombinant human Flt3, residues 564-end; GST (N); purchased Upstate USA Inc, 706 Forest Street, Charlottesville, Va
T2 sequence (P36888 564-993 limits assumed): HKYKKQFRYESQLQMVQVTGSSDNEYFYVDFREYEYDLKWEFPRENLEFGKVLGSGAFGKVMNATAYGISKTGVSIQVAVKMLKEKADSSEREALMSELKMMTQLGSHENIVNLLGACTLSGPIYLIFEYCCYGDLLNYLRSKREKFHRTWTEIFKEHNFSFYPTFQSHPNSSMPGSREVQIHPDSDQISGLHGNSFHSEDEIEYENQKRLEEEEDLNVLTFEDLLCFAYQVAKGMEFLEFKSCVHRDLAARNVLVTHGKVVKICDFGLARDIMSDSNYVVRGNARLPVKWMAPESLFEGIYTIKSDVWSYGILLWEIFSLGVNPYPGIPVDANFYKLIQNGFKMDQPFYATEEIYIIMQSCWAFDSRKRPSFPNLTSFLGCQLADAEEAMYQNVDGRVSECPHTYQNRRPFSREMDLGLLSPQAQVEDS
Method in brief: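 Serial compound dilutions incubated 40 min at room temperature with 5-10 mU Flt3 kinase, 50 μM peptide substrate and [γ-33P]ATP/10 mM magnesium acetate, pH 7.0. Phosphoric acid stop, filter capture and scintillation counting; activity compared with uninhibited reactions.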

[3] = biological target: T3, N-terminal His6-tagged recombinant human KDR, residues 790-end (Homo sapiens, UniProt P35968); assay: KDR kinase inhibition assay (33P-ATP filter assay)
T3 construct: recombinant human KDR, residues 790-end; His6 (N); purchased Upstate USA Inc, 706 Forest Street, Charlottesville, Va
T3 sequence (P35968 790-1356 limits assumed): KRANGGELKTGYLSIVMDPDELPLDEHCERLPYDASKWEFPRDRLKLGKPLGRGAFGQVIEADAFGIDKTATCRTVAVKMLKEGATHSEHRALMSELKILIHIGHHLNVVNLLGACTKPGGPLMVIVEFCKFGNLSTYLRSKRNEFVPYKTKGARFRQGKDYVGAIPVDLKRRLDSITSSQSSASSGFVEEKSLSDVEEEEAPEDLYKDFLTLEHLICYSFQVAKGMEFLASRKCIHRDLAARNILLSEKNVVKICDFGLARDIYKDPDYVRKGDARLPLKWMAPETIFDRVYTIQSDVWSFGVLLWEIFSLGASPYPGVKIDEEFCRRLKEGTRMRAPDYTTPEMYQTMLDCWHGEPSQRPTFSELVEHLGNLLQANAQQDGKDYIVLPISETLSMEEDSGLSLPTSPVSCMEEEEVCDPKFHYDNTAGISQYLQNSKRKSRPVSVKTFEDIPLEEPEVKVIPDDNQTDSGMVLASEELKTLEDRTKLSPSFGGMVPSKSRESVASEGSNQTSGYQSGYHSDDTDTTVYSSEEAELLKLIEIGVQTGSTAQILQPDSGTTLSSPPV
Method in brief: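 Radiometric filter assay: reaction started with Mg acetate (10 mM)/[γ-33P]ATP mix, run 40 min at room temperature in 8 mM MOPS pH 7.0 with 0.2 mM EDTA, MBP substrate (0.33 mg/mL) and recombinant KDR 790-end (5-10 mU). Phosphate incorporation by scintillation counting of P30 filtermats, compared with uninhibited reactions.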

[4] = group with IC50 greater than 100 nM

Structure (SMILES) | IC50 [1] | IC50 [2] | IC50 ([3]; 40 minutes at room temperature) | IC50 [1, 4] | IC50 [3, 4]
Cc1cc(Nc2cc(N3CCN(C)CC3)nc(-c3cc4ccccc4o3)n2)n[nH]1 [Compound 1, 2-(benzofuran-2-yl)-N-(5-methyl-1H-pyrazol-3-yl)-6-(4-methylpiperazin-1-yl)pyrimidin-4-amine] | ≤ 100 nM | ≤ 100 nM | ≤ 100 nM |  | 
Cc1cc(Nc2cc(N3CCN(C)CC3)nc(-c3cc4ccccc4n3C)n2)n[nH]1 [Compound 2, 2-(1-methyl-1H-indol-2-yl)-N-(5-methyl-1H-pyrazol-3-yl)-6-(4-methylpiperazin-1-yl)pyrimidin-4-amine] | ≤ 100 nM | ≤ 100 nM | ≤ 100 nM |  | 
Cc1cc(Nc2cc(N3CCC(O)CC3)nc(-c3cc4ccccc4n3C)n2)n[nH]1 [Compound 3, 1-(6-(5-methyl-1H-pyrazol-3-ylamino)-2-(1-methyl-1H-indol-2-yl)pyrimidin-4-yl)piperidin-4-ol] | ≤ 100 nM | ≤ 100 nM | ≤ 100 nM |  | 
Cc1cc(Nc2cc(N(C)CCN(C)C)nc(-c3cc4ccccc4n3C)n2)n[nH]1 [Compound 4, N^4-(2-(dimethylamino)ethyl)-N^4-methyl-2-(1-methyl-1H-indol-2-yl)-N^6-(5-methyl-1H-pyrazol-3-yl)pyrimidine-4,6-diamine] |  | ≤ 100 nM |  | ≤ 1000 nM | ≤ 1000 nM
Cc1cc(Nc2cc(NCCN3CCOCC3)nc(-c3cc4ccccc4n3C)n2)n[nH]1 [Compound 5, 2-(1-methyl-1H-indol-2-yl)-N^4-(5-methyl-1H-pyrazol-3-yl)-N^6-(2-morpholinoethyl)pyrimidine-4,6-diamine] |  | ≤ 100 nM |  | ≤ 1000 nM | ≤ 1000 nM
CC(=O)N1CCN(c2cc(Nc3cc(C)[nH]n3)nc(-c3cc4ccccc4n3C)n2)CC1 [Compound 6, 1-(4-(6-(5-methyl-1H-pyrazol-3-ylamino)-2-(1-methyl-1H-indol-2-yl)pyrimidin-4-yl)-piperazin-1-yl)ethanone] | ≤ 100 nM | ≤ 100 nM | ≤ 100 nM |  | 
Cc1cc(Nc2cc(NC3CCOCC3)nc(-c3cc4ccccc4n3C)n2)n[nH]1 [Compound 7, N^4-(tetrahydro-2H-pyran-4-yl)-2-(1-methyl-1H-indol-2-yl)-N^6-(5-methyl-1H-pyrazol-3-yl)pyrimidine-4,6-diamine] |  | ≤ 100 nM |  | ≤ 1000 nM | ≤ 1000 nM
Cc1cc(Nc2cc(N3CCN(C)CC3)nc(-c3ccccc3)n2)n[nH]1 [Compound 8, N-(5-methyl-1H-pyrazol-3-yl)-6-(4-methylpiperazin-1-yl)-2-phenyl pyrimidin-4-amine] | ≤ 100 nM | ≤ 100 nM | ≤ 100 nM |  | 
Cc1cc(Nc2cc(N(C)CCN(C)C)nc(-c3ccccc3)n2)n[nH]1 [Compound 9, N^4-(2-(dimethylamino)ethyl)-N^4-methyl-N^6-(5-methyl-1H-pyrazol-3-yl)-2-phenylpyrimidine-4,6-diamine] |  | ≤ 100 nM | ≤ 100 nM | ≤ 1000 nM | 
COCCNc1cc(Nc2cc(C)[nH]n2)nc(-c2ccccc2)n1 [Compound 10, N^4-(2-methoxyethyl)-N^6-(5-methyl-1H-pyrazol-3-yl)-2-phenylpyrimidine-4,6-diamine] | ≤ 100 nM | ≤ 100 nM | ≤ 100 nM |  | 
Cc1cc(Nc2cc(NCCN3CCOCC3)nc(-c3ccccc3)n2)n[nH]1 [Compound 11, N^4-(5-methyl-1H-pyrazol-3-yl)-N^6-(2-morpholinoethyl)-2-phenylpyrimidine-4,6-diamine] | ≤ 100 nM | ≤ 100 nM | ≤ 100 nM |  | 
Cc1cc(Nc2cc(NC3CCOCC3)nc(-c3ccccc3)n2)n[nH]1 [Compound 12, N^4-(tetrahydro-2H-pyran-4-yl)-N^6-(5-methyl-1H-pyrazol-3-yl)-2-phenylpyrimidine-4,6-diamine] | ≤ 100 nM | ≤ 100 nM | ≤ 100 nM |  | 
Cc1cc(Nc2cc(NCCN3CCN(C)CC3)nc(-c3ccccc3)n2)n[nH]1 [Compound 13, N^4-(5-methyl-1H-pyrazol-3-yl)-N^6-(2-(4-methylpiperazin-1-yl)ethyl)-2-phenylpyrimidine-4,6-diamine] |  | ≤ 100 nM | ≤ 100 nM | ≤ 1000 nM | 
Cc1cc(Nc2cc(N3CCN(C)CC3)nc(-c3ccco3)n2)n[nH]1 [Compound 14, 2-(furan-2-yl)-N-(5-methyl-1H-pyrazol-3-yl)-6-(4-methylpiperazin-1-yl)-pyrimidin-4-amine] |  | ≤ 100 nM |  | ≤ 1000 nM | ≤ 1000 nM
Cc1cc(Nc2cc(NC3CCOCC3)nc(-c3cc4ccccc4o3)n2)n[nH]1 [Compound 15, 2-(benzofuran-2-yl)-N^4-(tetrahydro-2H-pyran-4-yl)-N^6-(5-methyl-1H-pyrazol-3-yl)-pyrimidine-4,6-diamine] | ≤ 100 nM | ≤ 100 nM | ≤ 100 nM |  | 
Cc1cc(Nc2cc(N3CCN(C)CC3)nc(-c3cccc(-c4ccccc4)c3)n2)n[nH]1 [Compound 16, 2-(biphenyl-3-yl)-N-(5-methyl-1H-pyrazol-3-yl)-6-(4-methylpiperazin-1-yl)pyrimidin-4-amine] | ≤ 100 nM | ≤ 100 nM | ≤ 100 nM |  | 
Cc1cc(Nc2cc(NC3CCOCC3)nc(-c3ccc(F)cc3)n2)n[nH]1 [Compound 19, 2-(4-fluorophenyl)-N^4-(5-methyl-1H-pyrazol-3-yl)-N^6-(tetrahydro-2H-pyran-4-yl)pyrimidine-4,6-diamine] |  | ≤ 100 nM |  | ≤ 1000 nM | ≤ 1000 nM
Cc1cc(Nc2cc(NC3CCOCC3)nc(-c3cccc(F)c3)n2)n[nH]1 [Compound 20, 2-(3-fluorophenyl)-N^4-(5-methyl-1H-pyrazol-3-yl)-N^6-(tetrahydro-2H-pyran-4-yl)pyrimidine-4,6-diamine] | ≤ 100 nM | ≤ 100 nM | ≤ 100 nM |  | 
Cc1cc(Nc2cc(N3CCN(C)CC3)nc(-c3cccc(N(C)C)c3)n2)n[nH]1 [Compound 86, 2-(3-(dimethylamino)phenyl)-N-(5-methyl-1H-pyrazol-3-yl)-b-(4-methylpiperazin-1-yl)pyrimidin-4-amine] | ≤ 100 nM | ≤ 100 nM |  |  | 
Cc1cc(Nc2cc(NC3CCOCC3)nc(-c3ccc(-c4ccccc4)cc3)n2)n[nH]1 [Example 158, 2-(biphenyl-4-yl)-N^4-(5-methyl-1H-pyrazol-3-yl)-N^6-(tetrahydro-2H-pyran-4-yl)pyrimidine-4,6-diamine] |  | ≤ 100 nM |  | ≤ 1000 nM | 
Cc1cc(Nc2cc(N3CCN(C)CC3)nc(-c3ccc([N+](=O)[O-])cc3)n2)n[nH]1 [Example 164, N-(5-methyl-1H-pyrazol-3-yl)-6-(4-methylpiperazin-1-yl)-2-(4-nitrophenyl)pyrimidin-4-amine] |  | ≤ 100 nM |  | ≤ 1000 nM | 
Cc1cc(Nc2cc(N3CCN(C)CC3)nc(-c3cc(F)cc(F)c3)n2)n[nH]1 [Example 170, 2-(3,5-difluorophenyl)-N-(5-methyl-1H-pyrazol-3-yl)-6-(4-methylpiperazin-1-yl)pyrimidin-4-amine] | ≤ 100 nM | ≤ 100 nM |  |  | 
